Molecular target: SARS-CoV-2 main protease (M^pro; NSP5; 3CL M^pro) (Severe acute respiratory syndrome coronavirus 2, UniProt P0DTD1)
Assay: biochemical
Conditions: read-out: % Residual activity at 20 µM

Compound | remaining activity at 20 µM [%]
Cc1ccccc1CC(=O)NC(Cc1ccccc1)c1nc2ccccc2[nH]1 (stereo not drawn) [MCULE-2322094178] | 83
COc1ccc(-c2[nH]ncc2CNCc2ccccc2C)cc1 [MCULE-5715268546] | 83
O=C(NC(Cc1ccccc1)c1nc2ccccc2[nH]1)c1cccc(F)c1 (stereo not drawn) [MCULE-6499664919] | 83
